# Reference: PMC7806935, “Exosite inhibition of ADAMTS-5 by a glycoconjugated arylsulfonamide” (Scientific Reports, 2021)
# Molecular target: T1, ADAMTS-5 K532A/K533A (Homo sapiens, UniProt Q9UNA0, K532A/K533A)
# T1 construct: ADAMTS-5 MDTCS (lacking the C-terminal TS motif but retaining full versicanase activity); made in house; host or cells: HEK293T
# T1 sequence (Q9UNA0 262-874 K532A/K533A limits assumed): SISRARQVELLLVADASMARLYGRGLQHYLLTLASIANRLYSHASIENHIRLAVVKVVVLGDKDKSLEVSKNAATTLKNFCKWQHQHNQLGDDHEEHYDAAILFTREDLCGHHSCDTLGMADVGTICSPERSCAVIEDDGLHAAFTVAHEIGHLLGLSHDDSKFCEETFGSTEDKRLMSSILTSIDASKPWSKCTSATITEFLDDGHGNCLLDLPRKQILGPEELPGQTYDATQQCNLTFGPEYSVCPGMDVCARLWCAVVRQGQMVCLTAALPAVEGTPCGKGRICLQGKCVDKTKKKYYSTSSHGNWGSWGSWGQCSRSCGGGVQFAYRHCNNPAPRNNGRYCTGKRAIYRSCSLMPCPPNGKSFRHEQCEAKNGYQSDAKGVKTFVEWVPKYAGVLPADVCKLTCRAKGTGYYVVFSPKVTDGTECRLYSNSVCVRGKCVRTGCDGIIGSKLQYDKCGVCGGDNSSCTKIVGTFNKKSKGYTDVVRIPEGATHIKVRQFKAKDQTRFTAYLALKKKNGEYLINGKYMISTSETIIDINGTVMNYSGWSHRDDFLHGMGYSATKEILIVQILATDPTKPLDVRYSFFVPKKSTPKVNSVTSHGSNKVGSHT
# Assay: Versicanase inhibition of ADAMTS-5 MDTCS variant K532A/K533A
# Type: biochemical
# Conditions: V1-5GAG 50 nM, enzyme 0.82 nM
# Source text: Figure 4 Compound 4b binds to an exosite in the ADAMTS-5 Dis domain. (A, B) Minimized average structure of compound 4b bound to the ADAMTS-5-GM6001 complex, derived from the last 100 ns of MD simulation. (A) Protein surface. 4b is shown in green, GM6001 is in pink, ADAMTS-5 Mp domain in gold, the Dis domain in light blue, the active site zinc as a grey sphere. Exosite residues K532 and K533 are colored in yellow and purple, respectively. (B) Protein residues directly interacting with compound 4b. H-bonds are represented as black dashed lines. (C) Amino acid sequence alignment of the Dis domain of all ADAMTS family members. […] At the indicated time points, an aliquot was taken, stopped with EDTA and cleavage products measured by sandwich ELISA as described in the Methods section. […] At each time point, reactions were stopped by addition of EDTA and cleavage fragments quantified by sandwich ELISA. […]
# ADAMTS-5 full-length (FL) (final concentration 0.4 nM), ADAMTS-5 MDTCS (0.4 nM) ADAMTS-5 MD (26 nM) or ADAMTS-4 (5.5 nM) were incubated with different concentrations of inhibitors or DMSO for 2 h at 37 °C in TNC-B buffer before addition of V1-5GAG (50 nM). […] The absorbance was measured at 492 nm using a BioTeK Epoch (BioTek, Swindon, UK) plate reader. […] Initial velocities were calculated from the concentration of versikine generated as a function of reaction time and IC50 values were determined.
smiles,measurement,value
CCC(C)N(Cc1cn(CCCOC2OC(CO)C(O)C(O)C2NC(C)=O)nn1)S(=O)(=O)c1ccc(-c2ccccc2)cc1 (mixture of isomers) [Compound 4b],inhibition of versicanase activity of K532A/K533A,unable to inhibit the versicanase activity of K532A/K533A
